Converted amounts (≈) assume the structure as drawn. The source made the active and inactive calls. No cut-off for these calls is given here.

The target in one data set is Collagenase 3 (Homo sapiens, UniProt P45452). Kind of data set: Inhibition of proMMP-13 (unknown origin).
For data set [1], the target named is Matrix metalloproteinase-9 (Homo sapiens, UniProt P14780). As to the kind of experiment: Inhibition of proMMP-9 (unknown origin).
The target of data set [2] is 72 kDa type IV collagenase (Homo sapiens, UniProt P08253). As to the kind of experiment: Inhibition of proMMP-2 (unknown origin).
Data set [3] in a line: Solubility of compound. In kind it is physicochemical.
The target of data set [4] is Stromelysin-1 (Homo sapiens) (UniProt P08254). Kind of data set: Inhibition of MMP-3 catalytic activity (unknown origin).
Stromelysin-1 (Homo sapiens), sequence (P08254 100-477 limits assumed): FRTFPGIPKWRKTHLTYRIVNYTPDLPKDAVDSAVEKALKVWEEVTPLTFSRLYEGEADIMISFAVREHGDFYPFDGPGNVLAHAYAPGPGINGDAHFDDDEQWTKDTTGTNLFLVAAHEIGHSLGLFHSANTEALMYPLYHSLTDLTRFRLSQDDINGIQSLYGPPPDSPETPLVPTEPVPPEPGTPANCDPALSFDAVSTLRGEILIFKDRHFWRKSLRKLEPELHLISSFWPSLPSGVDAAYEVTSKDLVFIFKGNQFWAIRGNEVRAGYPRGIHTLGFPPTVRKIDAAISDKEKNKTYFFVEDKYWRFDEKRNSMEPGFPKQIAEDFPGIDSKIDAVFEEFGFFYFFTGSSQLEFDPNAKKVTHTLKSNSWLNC

Matrix metalloproteinase-9, sequence (P14780 whole entry): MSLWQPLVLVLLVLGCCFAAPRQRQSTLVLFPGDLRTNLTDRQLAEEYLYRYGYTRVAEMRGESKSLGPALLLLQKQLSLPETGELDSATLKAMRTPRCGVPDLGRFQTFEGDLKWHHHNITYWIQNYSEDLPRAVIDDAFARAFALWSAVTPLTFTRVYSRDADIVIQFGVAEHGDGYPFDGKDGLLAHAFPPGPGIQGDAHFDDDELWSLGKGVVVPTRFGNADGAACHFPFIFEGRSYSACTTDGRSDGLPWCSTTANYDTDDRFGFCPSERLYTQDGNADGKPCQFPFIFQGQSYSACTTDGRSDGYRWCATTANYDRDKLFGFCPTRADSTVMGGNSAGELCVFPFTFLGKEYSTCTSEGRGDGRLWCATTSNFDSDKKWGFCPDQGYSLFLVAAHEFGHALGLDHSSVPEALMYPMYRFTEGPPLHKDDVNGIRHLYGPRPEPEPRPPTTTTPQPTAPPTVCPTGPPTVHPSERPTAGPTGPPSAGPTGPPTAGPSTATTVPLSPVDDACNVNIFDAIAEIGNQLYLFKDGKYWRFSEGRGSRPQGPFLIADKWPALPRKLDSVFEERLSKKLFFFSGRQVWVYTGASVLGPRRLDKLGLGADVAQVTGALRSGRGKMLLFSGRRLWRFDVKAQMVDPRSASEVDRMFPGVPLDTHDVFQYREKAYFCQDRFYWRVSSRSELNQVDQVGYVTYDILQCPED
72 kDa type IV collagenase, sequence (P08253 whole entry): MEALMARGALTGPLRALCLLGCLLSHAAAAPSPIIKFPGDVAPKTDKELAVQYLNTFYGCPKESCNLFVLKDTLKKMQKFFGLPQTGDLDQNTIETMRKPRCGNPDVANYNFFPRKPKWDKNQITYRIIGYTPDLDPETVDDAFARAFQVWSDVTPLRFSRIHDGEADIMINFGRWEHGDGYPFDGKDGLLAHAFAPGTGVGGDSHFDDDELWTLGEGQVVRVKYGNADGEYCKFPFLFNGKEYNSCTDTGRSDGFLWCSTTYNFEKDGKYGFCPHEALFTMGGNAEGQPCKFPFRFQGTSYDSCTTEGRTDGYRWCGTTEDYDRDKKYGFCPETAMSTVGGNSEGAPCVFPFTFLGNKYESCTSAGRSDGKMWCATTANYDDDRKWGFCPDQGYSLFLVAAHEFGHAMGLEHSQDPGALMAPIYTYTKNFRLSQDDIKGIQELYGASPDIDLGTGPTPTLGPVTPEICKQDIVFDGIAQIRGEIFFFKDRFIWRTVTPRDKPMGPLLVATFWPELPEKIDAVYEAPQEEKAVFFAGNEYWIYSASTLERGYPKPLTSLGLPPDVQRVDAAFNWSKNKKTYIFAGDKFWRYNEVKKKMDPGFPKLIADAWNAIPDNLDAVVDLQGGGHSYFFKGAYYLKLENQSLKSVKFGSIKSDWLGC

For the compound `CC(C)(O)c1ccc2cc(C(=O)N3CCCc4cnc(N)c(F)c4C3)[nH]c2c1`, the IC50 against Collagenase 3 was > 30000 nM; in data set [1], 44 nM; in data set [2], > 30000 nM. On to `O=C(c1cc2ccc(C3CCC3)cc2[nH]1)N1CCCc2cnccc2C1`, for which the solubility in data set [3] is 0.4 µg/mL (≈ 1.16 µM). In addition, half-maximal inhibition in data set [1] (IC50) required 120 nM. `O=C(NCCN1CCCC1)c1ccc2c(c1)CN(C(=O)c1cc3c(F)cc(C4CC4)cc3[nH]1)CC2` showed a half-inhibitory concentration (IC50) in data set [1] of 1000 nM. On the same count and under the same terms, the result for `O=C(c1cc2ccc(C3CC3)cc2[nH]1)N1CCc2ocnc2C1` reads 1100 nM. On to `C[C@]1(O)C[C@@H](c2ccc3cc(C(=O)N4CCCc5cnccc5C4)[nH]c3c2)C1`, for which the solubility in data set [3] is 3 µg/mL (≈ 7.99 µM). Besides, in data set [1], the IC50 was 160 nM.

Regarding `CC(C)(O)c1ccc2cc(C(=O)N3CCCc4cnccc4C3)[nH]c2c1`, the solubility in data set [3] is > 35 µg/mL. The same compound gave an IC50 in data set [1] of 580 nM. In data set [1], `CCc1cccc2c(C(=O)N3CCc4ocnc4C3)n[nH]c12` yielded an IC50 of 8500 nM. In data set [4], the inhibition result was “inactive”. For the compound `O=C(c1cc2ccc(CCO)cc2[nH]1)N1CCCc2cnccc2C1`, the solubility in data set [3] was > 33 µg/mL. This compound also showed an IC50 in data set [1] of 1100 nM. Taken in the same sequence, the figures for `O=C(c1cc2ccc(C3CC3)cc2[nH]1)N1CCCc2cnccc2C1` were 8.6 µg/mL (≈ 25.9 µM) and 81 nM.

For the compound `O=C(c1cc2ccc(C3CC3)cc2[nH]1)N1CCc2cnccc2C1`, in data set [1], the IC50 was > 50000 nM. As for `CC(C)(C)c1ccc2cc(C(=O)N3CCCc4cnccc4C3)[nH]c2c1`, the concentration in solution in data set [3] (solubility) was 1.3 µg/mL (≈ 3.74 µM). Further, in data set [1], half-maximal inhibition (IC50) was put at 110 nM. For `CCc1ccc2cc(C(=O)N3CCCc4cnccc4C3)[nH]c2c1`, in that order: 0.8 µg/mL (≈ 2.5 µM) and 120 nM.

For `CNc1cc(F)cc2cc(C(=O)N3CCc4ccc(C(=O)NCCN5CCCC5)cc4C3)[nH]c12`, half-maximal inhibition in data set [1] (IC50) required 2600 nM. In data set [4], the inhibition entry was “inactive”. For the compound `O=C(c1cc2ccc(C3CC3)cc2[nH]1)N1CCc2ccccc2C1`, the IC50 in data set [1] was > 50000 nM.

What is called IC50 is the point on the concentration scale where inhibition reaches its midpoint. Read a high IC50 as lower potency. By solubility is commonly meant how much of the substance goes into solution per volume. A low value points to a poorly soluble substance.

Values taken from ChEMBL document CHEMBL5584207, “Discovery of novel indole derivatives as potent and selective inhibitors of proMMP-9 activation” (Bioorg Med Chem Lett, 2024).
